From patent US20260206761A1, “HETEROARYL-TRIAZOLE COMPOUNDS AS PESTICIDES” (Bayer Aktiengesellschaft, priority 2019, published 2026)

Tests used:
Format in all cases: in vivo
[1] = tested on: Rhipicephalus microplus larvae (strain Parkhurst, resistant against synthetic pyrethroids); test: Rhipicephalus (Boophilus) microplus in-vitro contact test, larval cattle tick; details: after 48 hours, read-out: activity (efficacy: larvae dead or moribund); for pest or weed control at 100 g/ha: application rate 1 pg/cm^2 (=100 g/ha); for pest or weed control at 500 g/ha: application rate 5 pg/cm^2 (=500 g/ha)
Description: Rhipicephalus (Boophilus) microplus—In-Vitro Contact Tests Larval Cattle Tick (Strain Parkhurst. Resistant Against Synthetic Pyrethroids)
(§1) 9 mg compound is solved in 1 mL acetone and diluted with acetone to the desired concentration. 250 μL of the test solution is filled in 25 mL glass test tubes and homogeneously distributed on the inner walls by rotation and tilting on a shaking device (2 h at 30 rpm). With a compound concentration of 900 ppm, an inner surface of 44.7 cm^2 and a homogeneous distribution, a dose of 5 μg/cm^2 is achieved.
After the solvent has evaporated, each test tube is filled with 20-50 cattle tick larvae (Rhipicephalus microplus), closed with a perforated lid and incubated in a horizontal position at 85% relative humidity and 27° C. in an incubator. After 48 hours efficacy is determined. The larvae are patted on the ground of the tubes and negative geotactic behaviour is recorded.
An efficacy of 100% means all larvae are dead or moribund; 0% means no larvae are dead or moribund.

[2] = tested on: adult engorged female ticks (Rhipicephalus microplus); test: Rhipicephalus (Boophilus) microplus injection test; details: 168 h, egg deposition after 7 days, read-out: activity (efficacy: infertile eggs); for pest or weed control at 4 pg: application rate 4 pg/animal; for pest or weed control at 0.02 mg: application rate 20 μg/animal
Description: Rhipicephalus (Boophilus) microplus—Injection Test
(§2) Solvent: dimethyl sulfoxide
To produce a suitable preparation of active compound, 10 mg of active compound are dissolved in 0.5 mL solvent, and the concentrate is diluted with solvent to the desired concentration.
Five adult engorged female ticks (Rhipicephalus microplus) are injected with 1 μL compound solution into the abdomen. The ticks are transferred into replica plates and incubated in a climate chamber.
After 7 days egg deposition of fertile eggs is monitored. Eggs where fertility is not visible are stored in a climate chamber till hatching after about 42 days. An efficacy of 100% means all eggs are infertile; 0% means all eggs are fertile.

[3] = tested on: adult unfed cat fleas (Ctenocephalides felis); test: Ctenocephalides felis oral test; details: 48 h, read-out: activity (mortality)
Description: Ctenocephalides felis—Oral Test
as §2
To produce a suitable preparation of active compound, 10 mg of active compound are dissolved in 0.5 mL solvent, and the concentrate is diluted with cattle blood to the desired concentration.
Approximately 20 adult unfed cat fleas (Ctenocephalides felis) are placed in flea chambers. The blood chamber, sealed with parafilm on the bottom, are filled with cattle blood supplied with compound solution and placed on the gauze covered top of the flea chamber, so that the fleas are able to suck the blood. The blood chamber is heated to 37° C. whereas the flea chamber is kept at room temperature.
After 2 days mortality in % is determined. 100% means all the fleas have been killed; 0% means none of the fleas have been killed.

[4] = tested on: larvae of the banded cucumber beetle (Diabrotica balteata); test: Diabrotica balteata spray test; details: 168 h, after 7 days, read-out: activity (efficacy: seedlings grown); for pest or weed control at 100 g/ha: application rate 100 g/ha (=32 pg/well); for pest or weed control at 500 g/ha: application rate 500 g/ha (=160 pg/well)
Description: Diabrotica balteata—spray test
(§3) Solvent: 78.0 parts by weight of acetone • • 1.5 parts by weight of dimethylformamide
(§4) Emulsifier: alkylarylpolyglycol ether
(§5) To produce a suitable preparation of active compound, 1 part by weight of active compound is mixed with the stated amount of solvent, and the concentrate is diluted with water, containing an emulsifier concentration of 1000 ppm, to the desired concentration. Further test concentrations are prepared by dilution with emulsifier containing water.
Soaked wheat seeds (Triticum aestivum) are placed in a multiple well plate filled with agar and some water and are incubated for 1 day to germinate (5 seeds per well). The germinated wheat seeds are sprayed with a test solution containing the desired concentration of the active ingredient. Afterwards each unit is infected with 10-20 larvae of the banded cucumber beetle (Diabrotica balteata).
After 7 days efficacy in % is determined. 100% means all the seedlings have grown up like in the untreated, uninfected control; 0% means none of the seedlings have grown.

[5] = tested on: fall armyworm larvae (Spodoptera frugiperda); test: Spodoptera frugiperda spray test; details: 168 h, read-out: activity (mortality)
Description: Spodoptera frugiperda—Spray Test
Solvent: 78.0 parts by weight acetone • 1.5 parts by weight dimethylformamide
as §4
as §5, with “solvents” for “solvent,”, “and” for “and the concentrate”
Maize (Zea mays) leaf sections are sprayed with a preparation of the active ingredient of the desired concentration. Once dry, the leaf sections are infested with fall armyworm larvae (Spodoptera frugiperda).
After 7 days mortality in % is determined. 100% means all caterpillars have been killed and 0% means none of the caterpillars have been killed.

[6] = tested on: Aedes aegypti strain MONHEIM; test: Aedes aegypti test (AEDSAE surface treatment & contact assay); details: 24 hours after contact, read-out: efficacy (mortality); for mortality at 4 mg/m2: surface concentration 4 mg/m^2, exposure 30 minutes; for mortality at 20 mg/m2: surface concentration 20 mg/m^2, exposure 30 minutes
Description: Aedes aegypti Test (AEDSAE Surface Treatment & Contact Assay)
Solvent: Aceton+2000 ppm rapeseed oil methyl ester (RME)
In order to produce a sufficient, active ingredient containing solution it is necessary to solve the test compound in the solvent-mix (acetone at 2 mg/ml/RME 2000 ppm). This solution is pipetted onto a glazed tile and after evaporation of the acetone, adult mosquitoes of the species Aedes aegypti strain MONHEIM are placed onto the dried surface. The exposure time is 30 minutes. Mortality in percent (%) is determined 24 hours after contact of the insects to the treated surface. 100% mortality means that all tested insects are dead, whereas 0% means that no insect died.

[7] = tested on: green peach aphid (Myzus persicae); test: Myzus persicae oral test; details: 120 h, application rate 4 ppm, after 5 days
Description: Solvent: 100 parts by weight acetone
To produce a suitable preparation of active compound, 1 part by weight of active compound is mixed with the stated amount of solvent, and the concentrate is diluted with water to the desired concentration.
50 μL compound solution is filled in microtiter plates and 150 μL IPL41 insect medium (33%+15% sugar) is added to obtain a total volume of 200 μL per well. Afterwards the plates are sealed with parafilm through which a mixed population of the green peach aphid (Myzus persicae) can suck on the compound preparation.
After 5 days mortality in % is determined. 100% means all aphids have been killed and 0% means none of the aphids have been killed.

[8] = tested on: larvae of the southern green stink bug (Nezara viridula); test: Nezara viridula spray test; details: 96 h, application rate 500 g/ha, after 4 days
Description: Nezara viridula—Spray Test
as §3, §4, §5
Barley plants (Hordeum vulgare) infested with larvae of the southern green stink bug (Nezara viridula) are sprayed with a test solution containing the desired concentration of the active ingredient.
After 4 days mortality in % is determined. 100% means all the stink bugs have been killed; 0% means none of the stink bugs have been killed.

[9] = tested on: adult brown dog ticks (Rhipicephalus sanguineus); test: Rhipicephalus sanguineus in-vitro contact test, adult brown dog ticks; details: after 48 hours, read-out: activity (efficacy: ticks dead or moribund); for pest or weed control at 5 µg/cm2, 500 g/ha: application rate 5 μg/cm^2 (=500 g/ha); for pest or weed control at 100 g/ha: application rate 1 pg/cm^2 (=100 g/ha)
Description: Rhipicephalus sanguineus—In-Vitro Contact Tests with Adult Brown Dog Ticks
as §1
After the solvent has evaporated, each test tube is filled with 5-10 adult brown dog ticks (Rhipicephalus sanguineus), closed with a perforated lid and incubated in a lying position at room temperature and relative humidity. After 48 hours efficacy is determined. The ticks are patted on the ground of the tubes and are incubated on a heating plate at 45-50° C. for at most 5 minutes. Immotile or uncoordinated moving ticks, which are not able to escape the heat by climbing upwards, are marked as dead or moribund.
An efficacy of 100% means all ticks are dead or moribund; 0% means no ticks are dead or moribund.

Row | SMILES | pest or weed control at 100 g/ha [1] [%] | pest or weed control at 500 g/ha [1] [%] | pest or weed control at 4 pg [2] [%] | pest or weed control at 0.02 mg [2] [%] | mortality at 100 ppm [3] [%] | pest or weed control at 100 g/ha [4] [%] | pest or weed control at 500 g/ha [4] [%] | mortality at 500 g/ha [5] [%] | mortality at 4 mg/m2 [6] [%] | mortality at 4 ppm [7] [%] | mortality at 100 g/ha [5] [%] | mortality at 20 mg/m2 [6] [%] | mortality at 500 g/ha [8] [%] | pest or weed control at 5 µg/cm2, 500 g/ha [9] [%] | pest or weed control at 100 g/ha [9] [%]
1 | CCCc1nc([C@H](C)NC(=O)c2cc(Cl)cc(C3CC3)c2)n(-c2ccc(C#N)cn2)n1 [I-1] | 100 | 100 | 100 | 100 | 100 | 100 | 100 | 100 | 80 to 100 |  |  |  |  |  | 
2 | CC(NC(=O)c1cc(Cl)cc(S(C)(=O)=O)c1)c1nc(C(F)F)nn1-c1ccc(C#N)cn1 (centres unmarked) [I-6] | 100 | 100 | 100 | 100 | 100 |  |  | 100 |  | 100 | 83 |  |  |  | 
3 | COc1nc([C@H](C)NC(=O)c2csc(Cl)c2)n(-c2ccc(C#N)cn2)n1 [I-8] |  |  | 80 | 100 | 80 | 80 | 100 |  | 80 to 100 |  |  | 80 to 100 |  |  | 
4 | CCOc1nc([C@H](C)NC(=O)c2cc(Cl)cc(S(C)(=O)=O)c2)n(-c2ccc(C#N)cn2)n1 [I-9] | 100 | 100 | 100 | 100 | 100 |  | 100 | 100 |  | 100 | 100 |  |  |  | 
5 | C[C@H](NC(=O)c1cc(Cl)cc(S(=O)(=O)CC(F)(F)F)c1)c1nc(C2CC2)nn1-c1ncc(Cl)cn1 [I-26] | 90 | 90 | 100 | 100 | 100 | 100 |  |  |  | 90 |  |  |  |  | 
6 | CC(NC(=O)c1cc(Cl)cc(S(C)(=O)=O)c1)c1nc(Br)nn1-c1ccc(Cl)cn1 (centres unmarked) [I-28] | 100 | 100 | 100 | 100 | 100 | 100 | 100 | 100 |  | 90 | 100 |  | 100 |  | 
7 | CC(NC(=O)c1cc(C(F)(F)F)n(C)n1)c1nc(Cl)nn1-c1ncccn1 (centres unmarked) [I-31] | 100 | 100 | 100 | 100 | 90 |  |  |  |  | 90 |  |  |  |  | 
8 | CC(NC(=O)c1cc(C(F)(F)F)n(C)n1)c1nc(Cl)nn1-c1ccc(C#N)cn1 (centres unmarked) [I-33] | 100 | 100 | 80 | 80 | 100 |  |  |  |  |  |  |  |  | 80 | 
9 | CC(NC(=O)c1cc(C(F)(F)F)n(C)n1)c1nc(Br)nn1-c1ncccn1 (centres unmarked) [I-39] | 100 | 100 | 100 |  | 100 |  |  |  |  |  |  |  |  | 80 | 80
10 | CC(NC(=O)c1cc(Br)cc(C2(C(F)(F)F)CC2)c1)c1nc(Cl)nn1-c1ncccn1 (centres unmarked) [I-47] | 90 | 90 | 100 | 100 | 80 | 100 |  |  | 80 to 100 | 100 | 100 | 80 to 100 |  |  | 
11 | CC(NC(=O)c1cc(Br)cc(C2(C(F)(F)F)CC2)c1)c1nc(Br)nn1-c1ncccn1 (centres unmarked) [I-48] | 90 | 90 | 100 |  | 100 |  |  |  |  | 100 | 100 |  |  |  | 
12 | Cc1nc([C@H](C)NC(=O)c2csc(Cl)c2)n(-c2cc(C#N)ccn2)n1 [II-19] |  |  | 100 | 100 | 100 |  | 100 |  | 80 to 100 |  |  |  |  |  | 
13 | C[C@H](NC(=O)c1cc(Cl)cc(S(C)(=O)=O)c1)c1ncnn1-c1ncc(I)s1 [II-51, 3-chloro-N-{(1S)-1-[1-(5-iodo-1,3-thiazol-2-yl)-1H-1,2,4-triazol-5-yl]ethyl}-5-(methylsulfonyl)benzamide] | 100 | 100 | 100 | 100 | 100 | 100 |  |  |  |  | 100 |  |  |  | 80
